# Assay results from US20200361895A1, “NOVEL SULFONAMIDE CARBOXAMIDE COMPOUNDS” (Inflazome Limited, priority 2017, published 2020).
# pIC50: −log10 of the molar value. Structures can show the parent of a compound that is named as a salt.
# Experiments:
# NLRP3 [1] = target: T1, NLRP3 (Homo sapiens, UniProt Q96P20); assay: THP-1 cells pyroptosis assay (LPS + nigericin, resazurin readout; THP IC50); type: cell-based; design: Seed THP-1 cells (25,000 cells/well) containing 1.0 μg/ml LPS in 40 μl of RPMI medium; host or cells: THP-1 cells
# Summary of the method: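 IC50 from 4-parameter fit of resazurin fluorescence (100 μM, 1-2 hrs), reflecting surviving cells after pyroptosis. LPS-primed (1 μg/ml) THP-1 cells in FBS-free RPMI got compound for 3 hrs at 37° C (top 10 μM, half-log, 8 points), then nigericin 5 μM for 1 hr.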
# NLRP3 [2] = target: T1, NLRP3; assay: Human whole blood IL1β release assay (LPS + nigericin, AlphaLisa IL-1β; HWB IC50); type: cell-based; design: Human whole blood in Li-heparin tubes was obtained from healthy donors from a volunteer donor panel; from tissue; host or cells: human whole blood from healthy donors; conditions: IL-1β release
# Summary of the method: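 IL-1β in plasma supernatant quantified by AlphaLisa after nigericin (10 μM final, 1 h, 37 °C) triggering of human whole blood that had been preincubated 3 h with LPS (1 μg/ml) plus compound (half-log, 8 points, from 10 μM). IC50 by variable-slope four-parameter regression.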
# T1 sequence (Q96P20 whole entry): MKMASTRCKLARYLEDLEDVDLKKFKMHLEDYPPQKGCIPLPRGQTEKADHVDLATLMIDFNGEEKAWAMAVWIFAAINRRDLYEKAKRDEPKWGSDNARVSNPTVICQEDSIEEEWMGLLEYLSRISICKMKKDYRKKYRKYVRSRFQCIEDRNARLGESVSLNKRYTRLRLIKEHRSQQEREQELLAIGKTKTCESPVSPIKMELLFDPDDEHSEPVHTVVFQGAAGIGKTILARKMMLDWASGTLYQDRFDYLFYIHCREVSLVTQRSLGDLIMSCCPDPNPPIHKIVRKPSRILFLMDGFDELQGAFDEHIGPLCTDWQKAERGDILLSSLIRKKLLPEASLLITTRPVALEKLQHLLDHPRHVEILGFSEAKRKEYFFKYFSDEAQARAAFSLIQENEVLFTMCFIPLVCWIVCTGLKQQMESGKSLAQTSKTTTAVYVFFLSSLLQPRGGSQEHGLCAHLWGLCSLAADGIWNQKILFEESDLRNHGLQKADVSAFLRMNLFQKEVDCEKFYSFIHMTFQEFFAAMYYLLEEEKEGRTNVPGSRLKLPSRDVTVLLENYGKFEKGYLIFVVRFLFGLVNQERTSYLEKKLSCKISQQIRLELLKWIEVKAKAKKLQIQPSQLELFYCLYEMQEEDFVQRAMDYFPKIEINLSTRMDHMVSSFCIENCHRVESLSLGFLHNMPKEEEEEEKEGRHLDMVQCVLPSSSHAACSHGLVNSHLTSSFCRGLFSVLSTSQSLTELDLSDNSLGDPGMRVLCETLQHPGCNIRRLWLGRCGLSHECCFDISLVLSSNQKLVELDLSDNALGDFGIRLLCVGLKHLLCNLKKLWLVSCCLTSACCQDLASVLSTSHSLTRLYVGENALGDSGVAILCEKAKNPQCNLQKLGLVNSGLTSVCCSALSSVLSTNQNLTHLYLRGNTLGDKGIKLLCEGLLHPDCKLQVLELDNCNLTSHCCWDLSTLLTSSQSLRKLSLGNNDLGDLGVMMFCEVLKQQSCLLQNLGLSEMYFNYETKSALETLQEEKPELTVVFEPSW
pIC50 (NLRP3 [1]),pIC50 (NLRP3 [2]),Compound
≥ 6.30,≥ 6.00,"COc1cc(-c2ccc3c(c2NC(=O)NS(=O)(=O)c2cn(C(C)C)cn2)CCC3)ccn1 [Example 233, 1-Isopropyl-N-((5-(2-methoxypyridin-4-yl)-2,3-dihydro-1H-inden-4-yl)carbamoyl)-1H-imidazole-4-sulfonamide]"
≥ 6.30,≥ 6.00,"COc1cc(-c2ccc3c(c2NC(=O)NS(=O)(=O)c2cn(C(C)C)nn2)CCC3)ccn1 [Example 234, 1-Isopropyl-N-((5-(2-methoxypyridin-4-yl)-2,3-dihydro-1H-inden-4-yl)carbamoyl)-1H-1,2,3-triazole-4-sulfonamide, sodium salt]"
≥ 6.30,≥ 6.30,"COc1cc(-c2ccc3c(c2NC(=O)NS(=O)(=O)c2cnn(CC(F)F)c2)CCC3)ccn1 [Example 235, 1-(2,2-Difluoroethyl)-N-((5-(2-methoxypyridin-4-yl)-2,3-dihydro-1H-inden-4-yl)carbamoyl)-1H-pyrazole-4-sulfonamide, sodium salt]"
≥ 6.30,≥ 6.30,"COc1cc(-c2ccc3c(c2NC(=O)NS(=O)(=O)c2ccn(C(C)(C)CN4CC(C)C4)n2)CCC3)ccn1 [Example 236, N-((5-(2-Methoxypyridin-4-yl)-2,3-dihydro-1H-inden-4-yl)carbamoyl)-1-(2-methyl-1-(3-methylazetidin-1-yl)propan-2-yl)-1H-pyrazole-3-sulfonamide]"
≥ 6.30,≥ 6.00,"CC(C)n1ccc(S(=O)(=O)NC(=O)Nc2c(-c3ccnc(OC(F)F)c3)ccc3c2CCC3)n1 [Example 237, N-((5-(2-(Difluoromethoxy)pyridin-4-yl)-2,3-dihydro-1H-inden-4-yl)carbamoyl)-1-isopropyl-1H-pyrazole-3-sulfonamide, sodium salt]"
≥ 6.30,≥ 6.30,"COc1cc(-c2ccc3c(c2NC(=O)NS(=O)(=O)c2nn(C(C)C)cc2F)CCC3)ccn1 [Example 239, 4-Fluoro-1-isopropyl-N-((5-(2-methoxypyridin-4-yl)-2,3-dihydro-1H-inden-4-yl)carbamoyl)-1H-pyrazole-3-sulfonamide]"
≥ 6.30,≥ 6.30,"COc1cc(-c2ccc3c(c2NC(=O)NS(=O)(=O)c2ccn(C(C)(C)CN4CC(F)C4)n2)CCC3)ccn1 [Example 242, 1-(1-(3-Fluoroazetidin-1-yl)-2-methylpropan-2-yl)-N-((5-(2-methoxypyridin-4-yl)-2,3-dihydro-1H-inden-4-yl)carbamoyl)-1H-pyrazole-3-sulfonamide, sodium salt]"
≥ 6.30,≥ 6.30,"COc1cc(-c2ccc3c(c2NC(=O)NS(=O)(=O)c2ccn(C(C)(C)CN4CCCC4)n2)CCC3)ccn1 [Example 243, N-((5-(2-Methoxypyridin-4-yl)-2,3-dihydro-1H-inden-4-yl)carbamoyl)-1-(2-methyl-1-(pyrrolidin-1-yl)propan-2-yl)-1H-pyrazole-3-sulfonamide, sodium salt]"
≥ 6.30,≥ 6.30,"COc1cc(-c2ccc3c(c2NC(=O)NS(=O)(=O)c2ccn(C4CCC4)n2)CCC3)ccn1 [Example 244, 1-Cyclobutyl-N-((5-(2-methoxypyridin-4-yl)-2,3-dihydro-1H-inden-4-yl)carbamoyl)-1H-pyrazole-3-sulfonamide, sodium salt]"
≥ 6.30,≥ 6.30,"Cc1cc(-c2ccc3c(c2NC(=O)NS(=O)(=O)c2ccn(C(C)C)n2)CCC3)ccn1 [Example 245, 1-Isopropyl-N-((5-(2-methylpyridin-4-yl)-2,3-dihydro-1H-inden-4-yl)carbamoyl)-1H-pyrazole-3-sulfonamide, sodium salt]"
≥ 6.30,≥ 6.00,"COc1cc(-c2ccc3c(c2NC(=O)NS(=O)(=O)c2cnn(C(C)C)n2)CCC3)ccn1 [Example 246, 2-Isopropyl-N-((5-(2-methoxypyridin-4-yl)-2,3-dihydro-1H-inden-4-yl)carbamoyl)-2H-1,2,3-triazole-4-sulfonamide, sodium salt]"
≥ 6.30,≥ 6.30,"COc1cc(-c2ccc3c(c2NC(=O)NS(=O)(=O)c2ccn(C4(CN(C)C)CCC4)n2)CCC3)ccn1 [Example 247, 1-(1-((Dimethylamino)methyl)cyclobutyl)-N-((5-(2-methoxypyridin-4-yl)-2,3-dihydro-1H-inden-4-yl)carbamoyl)-1H-pyrazole-3-sulfonamide, sodium salt]"
≥ 6.30,≥ 6.30,"COc1cc(-c2ccc3c(c2NC(=O)NS(=O)(=O)c2ccn(C4CC4)n2)CCO3)ccn1 [Example 248, 1-Cyclopropyl-N-((5-(2-methoxypyridin-4-3-sulfonamide, sodium salt]"
≥ 6.30,≥ 6.30,"COc1cc(-c2ccc3c(c2NC(=O)NS(=O)(=O)c2ccn(CCF)n2)CCC3)ccn1 [Example 249, 1-(2-Fluoroethyl)-N-((5-(2-methoxypyridin-4-yl)-2,3-dihydro-1H-inden-4-yl)carbamoyl)-1H-pyrazole-3-sulfonamide, sodium salt]"
≥ 6.30,≥ 6.30,"COc1cc(-c2ccc3c(c2NC(=O)NS(=O)(=O)c2cnn(C(C)C)c2)CCC3)ccn1 [Example 250, 1-Isopropyl-N-((5-(2-methoxypyridin-4-yl)-2,3-dihydro-1H-inden-4-yl)carbamoyl)-1H-pyrazole-4-sulfonamide, sodium salt]"
≥ 6.30,≥ 6.30,"COc1cc(-c2ccc3c(c2NC(=O)NS(=O)(=O)c2ccn(C(C)(C)C)n2)CCC3)ccn1 [Example 252, 1-(tert-Butyl)-N-((5-(2-methoxypyridin-4-yl)-2,3-dihydro-1H-inden-4-yl)carbamoyl)-1H-pyrazole-3-sulfonamide, sodium salt]"
≥ 6.00,≥ 5.30,"CNc1cc(-c2ccc3c(c2NC(=O)NS(=O)(=O)c2ccn(C4CC4)n2)CCC3)ccn1 [Example 253, 1-Cyclopropyl-N-((5-(2-(methylamino)pyridin-4-yl)-2,3-dihydro-1H-inden-4-yl)carbamoyl)-1H-pyrazole-3-sulfonamide]"
≥ 6.30,≥ 6.30,"COc1cc(-c2ccc3c(c2NC(=O)NS(=O)(=O)c2ccn(C4CC4)n2)CCC3)c(F)cn1 [Example 255, 1-Cyclopropyl-N-((5-(5-fluoro-2-methoxypyridin-4-yl)-2,3-dihydro-1H-inden-4-yl)carbamoyl)-1H-pyrazole-3-sulfonamide, sodium salt]"
≥ 6.30,≥ 6.30,"COc1cc(-c2ccc3c(c2NC(=O)NS(=O)(=O)c2ccn(C4CCC4)n2)CCO3)ccn1 [Example 257, 1-Cyclobutyl-N-((5-(2-methoxypyridin-4-yl)-2,3-dihydrobenzofuran-4-yl)carbamoyl)-1H-pyrazole-3-sulfonamide, sodium salt]"
≥ 6.30,≥ 6.30,"COc1cc(-c2ccc3c(c2NC(=O)NS(=O)(=O)c2ccn(C(C)(C)CN4CCC4)n2)CCO3)ccn1 [Example 258, 1-(1-(Azetidin-1-yl)-2-rnethylpropan-2-yl)-N-((5-(2-methoxypyridin-4-yl)-2,3-dihydrobenzofuran-4-yl)carbamoyl)-1H-pyrazole-3-sulfonamide, sodium salt]"
≥ 6.30,≥ 6.30,"COc1cc(-c2ccc3c(c2NC(=O)NS(=O)(=O)c2ccn(C(C)(C)C)n2)CCO3)ccn1 [Example 259, 1-(tert-Butyl)-N-((5-(2-methoxypyridin-4-yl)-2,3-dihydrobenzofuran-4-yl)carbamoyl)-1H-pyrazole-3-sulfonamide, sodium salt]"
